US12630796B2, “System, device, and method for single-cell encapsulation and culture” (UNIVERSITY OF MARYLAND, COLLEGE PARK, priority 2020, dated 2026)
Counter-ions that a name gives are not always drawn.

Tested on: 1csc colony cells obtained from MDA-MB-231 cells
Assay: In vitro cell viability after drug treatment (CCK-8)
Type: cell-based, human
Settings: 1csc colony cells versus cells from 2Dcells, Ucells and Mcells cultures; 24 hours treatment; FIG. 6A-6B
Protocol: For 2Dcells culture, human MDA-MB-231, MCF-7, PC-3, and OVCAR-8 cancer cells were cultured in Corning (Lowell, MA, USA) T75 flasks in DMEM, EMEM, F12K, and RPMI-1640 medium supplemented with 10% FBS and 1% penicillin/streptomycin at 37° C. in a humidified 5% CO2 incubator, respectively. For Ucells culture, cells were cultured in Corning (Lowell, MA, USA) 6-well ultralow attachment plate (ULAP) at a density of 20,000 cells ml^−1 in CSC medium consisting of serum-free DMEM/F12 supplemented with 5 μg ml^−1 insulin, 20 ng ml^−1 epidermal growth factor (EGF), 20 ng ml^−1 basic fibroblast growth factor (bFGF), 1×B27 (Invitrogen, Carlsbad, CA, USA), 0.4% (w v^−1) bovine serum albumin, 100 U ml^−1 penicillin, and 100 μg ml^−1 streptomycin. The cell spheroids or aggregates were collected after 7 days for further experiments. For lcsc and Mcells cultures, microcapsules encapsulated with one (for 1csc) or multiple (for Mcells) cells were cultured in the aforementioned CSC medium. To determine viability of cells under 2Dcells culture, cells were transferred into 96-well plates first. […] The cell viability was then evaluated using the CCK-8 cell proliferation reagent per the manufacturer's instructions. Cell viability was calculated as the ratio of the cell number determined for each group with a treatment to that of control group with no treatment.

Structure (SMILES)	resistance of the 1csc colony cells to the drug (cell viability)
COc1cccc2c1C(=O)c1c(O)c3c(c(O)c1C2=O)C[C@@](O)(C(=O)CO)C[C@@H]3O[C@H]1C[C@H](N)[C@H](O)[C@H](C)O1 [DOX, Doxorubicin hydrochloride]	significantly more resistant
CCc1c2c(nc3ccc(OC(=O)N4CCC(N5CCCCC5)CC4)cc13)-c1cc3c(c(=O)n1C2)COC(=O)[C@]3(O)CC [CPT-11, Irinotecan/camptothecin-11]	significantly more resistant
